PubChem BioAssay (NCI)
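Cultured in 96-well plates, cells were exposed to test compound for 48 hours across five concentrations. The concentration for 50% growth inhibition is given as GI50. The concentration for full growth arrest is given as TGI.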

Legend:
Assay in all cases: NCI tumour cell line growth inhibition, 48 h
MALME-3M melanoma = tested on: MALME-3M melanoma
A498 renal = tested on: A498 renal
NCI-H522 lung = tested on: NCI-H522 lung
UACC-62 melanoma = tested on: UACC-62 melanoma
IGROV1 ovarian = tested on: IGROV1 ovarian
HS 578T breast = tested on: HS 578T breast
MDA-MB-435 = tested on: MDA-MB-435
HT29 colon = tested on: HT29 colon
DU-145 prostate = tested on: DU-145 prostate
SK-MEL-5 melanoma = tested on: SK-MEL-5 melanoma
CAKI-1 renal = tested on: CAKI-1 renal
A549 NSCLC = tested on: A549 NSCLC
SK-MEL-2 melanoma = tested on: SK-MEL-2 melanoma
NCI-H460 lung = tested on: NCI-H460 lung
HOP-92 NSCLC = tested on: HOP-92 NSCLC
COLO 205 colon = tested on: COLO 205 colon
BT-549 breast = tested on: BT-549 breast
SR leukemia = tested on: SR leukemia
HL-60(TB) leukemia = tested on: HL-60(TB) leukemia
CCRF-CEM leukemia = tested on: CCRF-CEM leukemia
OVCAR-8 ovarian = tested on: OVCAR-8 ovarian
SF-295 CNS = tested on: SF-295 CNS
SF-539 CNS = tested on: SF-539 CNS
SN12C renal = tested on: SN12C renal
KM12 colon = tested on: KM12 colon
UO-31 renal = tested on: UO-31 renal
NCI-H226 lung = tested on: NCI-H226 lung
RPMI-8226 leukemia = tested on: RPMI-8226 leukemia
OVCAR-5 ovarian = tested on: OVCAR-5 ovarian
SW-620 colon = tested on: SW-620 colon
SNB-75 CNS = tested on: SNB-75 CNS
SF-268 CNS = tested on: SF-268 CNS
HCC-2998 colon = tested on: HCC-2998 colon
NCI/ADR-RES ovarian = tested on: NCI/ADR-RES ovarian
UACC-257 melanoma = tested on: UACC-257 melanoma
EKVX NSCLC = tested on: EKVX NSCLC
TK-10 renal = tested on: TK-10 renal
HCT-116 colon = tested on: HCT-116 colon
SK-OV-3 ovarian = tested on: SK-OV-3 ovarian
MDA-MB-231 breast = tested on: MDA-MB-231 breast
MDA-MB-468 breast = tested on: MDA-MB-468 breast
ACHN renal = tested on: ACHN renal
SNB-19 CNS = tested on: SNB-19 CNS
T-47D breast = tested on: T-47D breast
RXF 393 renal = tested on: RXF 393 renal
786-0 renal = tested on: 786-0 renal
OVCAR-4 ovarian = tested on: OVCAR-4 ovarian
MCF7 breast = tested on: MCF7 breast
HCT-15 colon = tested on: HCT-15 colon
SK-MEL-28 melanoma = tested on: SK-MEL-28 melanoma
OVCAR-3 ovarian = tested on: OVCAR-3 ovarian
K-562 leukemia = tested on: K-562 leukemia
MOLT-4 leukemia = tested on: MOLT-4 leukemia
HOP-62 NSCLC = tested on: HOP-62 NSCLC
PC-3 prostate = tested on: PC-3 prostate
NCI-H23 lung = tested on: NCI-H23 lung
M14 melanoma = tested on: M14 melanoma
U251 CNS = tested on: U251 CNS
LOX IMVI melanoma = tested on: LOX IMVI melanoma

## CC(=C(c1ccc(OCCN2CCCCCC2)cc1)c1ccc(OCCN2CCCCCC2)cc1)c1ccc(Cl)cc1
MALME-3M melanoma
  GI50: 0.745 µM
  TGI: 1.66 µM
A498 renal
  GI50: 5.47 µM
  TGI: 11 µM
NCI-H522 lung
  GI50: 4.84 µM
  TGI: 10.1 µM
UACC-62 melanoma
  GI50: 1.09 µM
  TGI: 3.57 µM
IGROV1 ovarian
  GI50: 5.09 µM
  TGI: 10.3 µM
HS 578T breast
  GI50: 5.25 µM
  TGI: 13.3 µM
MDA-MB-435
  GI50: 0.807 µM
  TGI: 1.9 µM
HT29 colon
  GI50: 0.942 µM
  TGI: 2.55 µM
DU-145 prostate
  GI50: 5.19 µM
  TGI: 10.4 µM
SK-MEL-5 melanoma
  GI50: 2.84 µM
  TGI: 8.15 µM
CAKI-1 renal
  GI50: 4.69 µM
  TGI: 9.75 µM
A549 NSCLC
  GI50: 4.64 µM
  TGI: 12.1 µM
SK-MEL-2 melanoma
  GI50: 6.88 µM
  TGI: 12.6 µM
NCI-H460 lung
  GI50: 1.37 µM
  TGI: 5.14 µM
HOP-92 NSCLC
  GI50: 2.01 µM
  TGI: 8.1 µM
COLO 205 colon
  GI50: 0.813 µM
  TGI: 1.62 µM
BT-549 breast
  GI50: 7.09 µM
  TGI: 13.3 µM
SR leukemia
  GI50: 0.963 µM
  TGI: 3.33 µM
HL-60(TB) leukemia
  GI50: 1.32 µM
  TGI: 9.39 µM
CCRF-CEM leukemia
  GI50: 1.11 µM
  TGI: 3.88 µM
OVCAR-8 ovarian
  GI50: 7.95 µM
  TGI: 18.5 µM
SF-295 CNS
  GI50: 1.97 µM
  TGI: 7.2 µM
SF-539 CNS
  GI50: 4.54 µM
  TGI: 9.49 µM
SN12C renal
  GI50: 5.38 µM
  TGI: 10.9 µM
KM12 colon
  GI50: 4.56 µM
  TGI: 10.1 µM
UO-31 renal
  GI50: 4.66 µM
  TGI: 9.6 µM
NCI-H226 lung
  GI50: 5.96 µM
  TGI: 12.6 µM
RPMI-8226 leukemia
  GI50: 1.29 µM
  TGI: 4.7 µM
OVCAR-5 ovarian
  GI50: 5 µM
  TGI: 10.1 µM
SW-620 colon
  GI50: 0.757 µM
  TGI: 1.75 µM
SNB-75 CNS
  GI50: 4.78 µM
  TGI: 9.96 µM
SF-268 CNS
  GI50: 5.44 µM
  TGI: 11.4 µM
HCC-2998 colon
  GI50: 1.05 µM
  TGI: 3.86 µM
NCI/ADR-RES ovarian
  GI50: 5.82 µM
  TGI: 11.6 µM
UACC-257 melanoma
  GI50: 1.44 µM
  TGI: 5.62 µM
EKVX NSCLC
  GI50: 5.77 µM
  TGI: 11.5 µM
TK-10 renal
  GI50: 6.19 µM
  TGI: 11.7 µM
HCT-116 colon
  GI50: 1.49 µM
  TGI: 6.22 µM
SK-OV-3 ovarian
  GI50: 6.46 µM
  TGI: 12.1 µM
MDA-MB-231 breast
  GI50: 4.19 µM
  TGI: 8.99 µM
MDA-MB-468 breast
  GI50: 1.3 µM
  TGI: 6.08 µM
ACHN renal
  GI50: 5.9 µM
  TGI: 11.2 µM
SNB-19 CNS
  GI50: 6.06 µM
  TGI: 11.5 µM
T-47D breast
  GI50: 2.89 µM
  TGI: 9.27 µM
RXF 393 renal
  GI50: 1.76 µM
  TGI: 7.23 µM
786-0 renal
  GI50: 3.62 µM
  TGI: 10.5 µM
OVCAR-4 ovarian
  GI50: 5.76 µM
  TGI: 11.7 µM
MCF7 breast
  GI50: 0.654 µM
  TGI: 1.77 µM
HCT-15 colon
  GI50: 1.48 µM
  TGI: 5.7 µM
SK-MEL-28 melanoma
  GI50: 0.682 µM
  TGI: 1.29 µM
OVCAR-3 ovarian
  GI50: 2.83 µM
  TGI: 8.44 µM
K-562 leukemia
  GI50: 0.908 µM
  TGI: 40.7 µM
MOLT-4 leukemia
  GI50: 1.08 µM
  TGI: 3.33 µM
HOP-62 NSCLC
  GI50: 5.77 µM
  TGI: 11.6 µM
PC-3 prostate
  GI50: 4.53 µM
  TGI: 10 µM
NCI-H23 lung
  GI50: 5.58 µM
  TGI: 11.1 µM
M14 melanoma
  GI50: 0.838 µM
  TGI: 1.85 µM
U251 CNS
  GI50: 5.31 µM
  TGI: 11.3 µM
LOX IMVI melanoma
  GI50: 0.776 µM
  TGI: 1.61 µM
